Patent US5387592A, “Substituted benzoxazole, benzthiazole, and benzimidazole derivatives as angiotensin II antagonists” (Imperial Chemical Industries PLC, priority 1991, dated 1995)
Counter-ions that a name gives are not always drawn.

Biological target: T1, AII receptors (Cavia porcellus, UniProt Q9WV26)
T1 construct: the source of cell surface membranes is the guinea pig adrenal gland; from tissue; host or cells: guinea pig adrenal gland, cell surface membrane fraction
T1 sequence (Q9WV26 1-359): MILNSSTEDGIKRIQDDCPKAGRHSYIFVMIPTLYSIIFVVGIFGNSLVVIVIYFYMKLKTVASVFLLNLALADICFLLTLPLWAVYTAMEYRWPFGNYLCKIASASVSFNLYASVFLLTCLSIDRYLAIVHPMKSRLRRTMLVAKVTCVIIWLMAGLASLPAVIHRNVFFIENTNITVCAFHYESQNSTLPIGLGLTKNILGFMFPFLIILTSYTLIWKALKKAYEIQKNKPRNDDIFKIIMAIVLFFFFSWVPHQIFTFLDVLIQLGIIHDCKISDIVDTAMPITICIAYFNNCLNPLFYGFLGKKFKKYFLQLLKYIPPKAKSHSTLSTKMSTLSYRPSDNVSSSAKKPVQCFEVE
Assay: Test A: displacement of radiolabelled AII binding from guinea pig adrenal gland membrane fraction
Conditions: guinea pig adrenal gland membranes; read-out: IC50 (concentration for 50% displacement of radiolabelled AII binding)
Procedure: This in vitro procedure involves the incubation of the test compound initially at a concentration of 100 micromolar (or less) in a buffered mixture containing fixed concentrations of radiolabelled AII and a cell surface membrane fraction prepared from a suitable angiotensin target tissue. In this test, the source of cell surface membranes is the guinea pig adrenal gland which is well known to respond to AII. Interaction of the radiolabelled AII with its receptors (assessed as radiolabel bound to the particulate membrane fraction following removal of unbound radiolabel by a rapid filtration procedure such as is standard in such studies) is antagonized by compounds which also bind to the membrane receptor sites and the degree of antagonism (observed in the test as displacement of membrane-bound radioactivity) is determined readily by comparing the receptor-bound radioactivity in the presence of the test compound at the specified test concentration with a control value determined in the absence of the test compound. Using this procedure compounds showing at least 50% displacement of radiolabelled AII binding at a concentration of 10^-4 M are retested at lower concentrations to determine their potency. […]

IC50: 200 nM
Compound: CCc1cc(OCc2ccc3oc(-c4ccccc4-c4nnn[nH]4)nc3c2)c2c(n1)CCCC2 [Example 3, 2-ethyl-5,6,7,8-tetrahydro-4-[(2-(2-(1H-tetrazol-5-yl)phenyl)benzoxazol-5-yl)methoxy]quinoline hydrochloride]
